# Source: PubChem BioAssay (NCI)
# “And” between values parts separate entries of the source, which are not always exact repeats. Identical values can stand only once.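 96-well plates; 48 h exposure; 5 concentrations. Endpoints by linear interpolation between flanking doses. Not reached: highest tested concentration assigned. GI50 = concentration required for 50% inhibition of growth. TGI: concentration producing complete growth inhibition.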
# Key:
# Assay in all cases: NCI-60 cell line screen, 48 h
# HL-60(TB) leukemia = system: HL-60(TB) leukemia
# SNB-75 CNS = system: SNB-75 CNS
# SW-620 colon = system: SW-620 colon
# CAKI-1 renal = system: CAKI-1 renal
# MALME-3M melanoma = system: MALME-3M melanoma
# U251 CNS = system: U251 CNS
# TK-10 renal = system: TK-10 renal
# RPMI-8226 leukemia = system: RPMI-8226 leukemia
# UACC-62 melanoma = system: UACC-62 melanoma
# EKVX NSCLC = system: EKVX NSCLC
Structure (SMILES),GI50 (HL-60(TB) leukemia) [nM],TGI (HL-60(TB) leukemia) [µM],GI50 (SNB-75 CNS) [µM],TGI (SNB-75 CNS) [µM],GI50 (SW-620 colon) [nM],TGI (SW-620 colon),GI50 (CAKI-1 renal) [nM],TGI (CAKI-1 renal),GI50 (MALME-3M melanoma) [µM],TGI (MALME-3M melanoma),GI50 (U251 CNS) [µM],TGI (U251 CNS) [µM],GI50 (TK-10 renal) [nM],TGI (TK-10 renal),GI50 (RPMI-8226 leukemia) [nM],GI50 (UACC-62 melanoma) [nM],TGI (UACC-62 melanoma),GI50 (EKVX NSCLC) [µM],TGI (EKVX NSCLC) [µM],TGI (RPMI-8226 leukemia) [µM]
O=C(N/N=C/c1ccc(Cl)cc1)c1ccc(C(F)(F)F)nc1Nc1cccc(C(F)(F)F)c1,1450,5.69,2.72,13.4,1450,10.4 µM,2370,9.88 µM,3.86,23 µM,1.55,10.2,2850,16.8 µM,1530,2390,6.15 µM,1.97,14.1,–
CCC[CH2][Sn]1([CH2]CCC)[O]CC(CN2CCCC2)[O]1 (stereo not drawn),3870,15.2,14.4,40.9,11500,27.6 µM,5600,24.5 µM,4.59,17.4 µM,15.3,29.1,12000,24.3 µM,7440,13600,30.5 µM,12.9,33.2,44.1
COc1cc2c(c(OC)c1OC)-c1ccc(OC)c(=O)cc1[C@@H](NC(=O)c1ccccc1)CC2,–,< 0.013,–,33.8,< 3,30 µM and > 81.4 µM,29,30 µM and 61.2 µM,< 0.003,30 µM and 80.1 µM,–,4.06,80.6,30 µM and > 100 µM,–,< 3,30 µM and 59.7 µM,> 30,> 100,> 80.7
COC1=C(C)C(=O)c2c(c(COC(N)=O)c3n2CC2C3N2C)C1=O (stereo not drawn),–,0.17,–,< 0.0446,–,0.145 µM,–,0.059 µM,–,0.164 µM,–,0.0231,–,0.0542 µM,–,–,0.117 µM,–,0.376,0.117
N#C/C(=C1C=C(Br)/C(=N\O)C=C\1Cl)c1cccc2ccccc12,–,11.6,–,0.79,–,25.5 µM,–,23.4 µM,–,21.4 µM,–,10.7,–,24.1 µM,–,–,15.8 µM,–,23.3,32.4
COC(=O)C1=C(C)N(NC(=O)OC(C)(C)C)C(=O)C1=P(c1ccccc1)(c1ccccc1)c1ccccc1,–,> 100,–,> 100,–,> 100 µM,–,> 100 µM,–,> 100 µM,–,> 100,–,> 100 µM,–,–,> 100 µM,–,> 100,> 100
COc1ccc(Nc2c3ccccc3nc3occc23)cc1,1470,–,9.4,> 100,2900,39.5 µM,2930,> 42 µM,2.31,34.3 µM,3.85,> 100,1610,20.6 µM,1120,342,–,18.1,> 52.7,12.4
COC1(OC)C2(Cl)C(Cl)=C(Cl)C1(Cl)C1C=CC=CC12 (stereo not drawn),–,> 100,–,> 100,–,> 100 µM,–,> 100 µM,–,> 100 µM,–,> 100,–,> 100 µM,–,–,> 100 µM,–,> 100,> 100
CN1C/C=C\CCOc2cccc(c2)-c2ccnc(n2)Nc2cccc(c2)C1,23.2,0.103,0.0545,0.169,43.9,4.49 µM,37.3,1.52 µM,0.107,0.454 µM,0.0374,0.678,76.2,0.88 µM,80.4,25.9,0.148 µM,0.0872,0.961,0.318
c1ccc2c(c1)ccn2CCc1c[nH]c2ccccc12,–,> 10,–,> 10,–,> 10 µM,–,> 10 µM,–,> 10 µM,–,> 10,–,> 10 µM,–,–,> 10 µM,–,> 10,> 10
COc1cc2c3c(n(CCCNC(=O)OCC4c5ccccc5-c5ccccc54)c(=O)c2cc1OC)-c1cc2c(cc1/C3=C\CCNC(=O)OCC1c3ccccc3-c3ccccc31)OCO2,18100,> 50,> 50,> 50,> 24100,> 50 µM,> 13800,> 46.1 µM,45.5,> 50 µM,> 17.8,> 36.7,> 31700,> 50 µM,> 26300,> 21600,> 36 µM,> 50,> 50,48.9
COC(=O)[C@@H](C)CNS(=O)(=O)N(c1cc(C(F)(F)F)cc(C(F)(F)F)c1)C1CCN(Cc2ccc(F)cc2)CC1,4690,18.2,6.24,20.4,11100,24.9 µM,7230,22.3 µM,6.89,22.3 µM,10.2,27.9,17200,32.7 µM,7570,11000,24.6 µM,12.2,28.9,25.6
CCOC(=O)[C@@H](N)CCC(=O)N[C@@H](CSCc1ccccc1)C(=O)N[C@@H](C(=O)OCC)c1ccccc1,18500,39.5,13,26.4,20700,49.2 µM,22200,> 53 µM,19.7,36.2 µM,16.6,31.3,16600,32.7 µM,17800,17100,33 µM,25.2,> 73.3,45.1
CN(C)C(=O)c1cc2cnc(Nc3ccc(-c4csc5c(=S)cc(N6CCOCC6)oc45)cc3)nc2n1C1CCCC1,264,1.97,0.314,2.04,604,> 50 µM,368,> 13.3 µM,0.778,31.1 µM,0.481,> 50,987,> 50 µM,252,234,1.72 µM,0.792,> 13.7,1.45
